# Measurements from patent US6197752A, “Glycomimetics as selectin antagonists and pharmaceuticals having antiinflammatory activity prepared therefrom” (Glycorex AB, priority 1995, dated 2001).
# Like-named read-outs stand apart in the source and are kept apart here.
# Columns and labels:
# [1] = system: selectins; settings: cited from earlier work
# [2] = target: T1, P-Selectin (Homo sapiens, UniProt P16109); settings: WO 95/04526, WO 94/24145, cited from earlier work
# T1 sequence (P16109 42-830): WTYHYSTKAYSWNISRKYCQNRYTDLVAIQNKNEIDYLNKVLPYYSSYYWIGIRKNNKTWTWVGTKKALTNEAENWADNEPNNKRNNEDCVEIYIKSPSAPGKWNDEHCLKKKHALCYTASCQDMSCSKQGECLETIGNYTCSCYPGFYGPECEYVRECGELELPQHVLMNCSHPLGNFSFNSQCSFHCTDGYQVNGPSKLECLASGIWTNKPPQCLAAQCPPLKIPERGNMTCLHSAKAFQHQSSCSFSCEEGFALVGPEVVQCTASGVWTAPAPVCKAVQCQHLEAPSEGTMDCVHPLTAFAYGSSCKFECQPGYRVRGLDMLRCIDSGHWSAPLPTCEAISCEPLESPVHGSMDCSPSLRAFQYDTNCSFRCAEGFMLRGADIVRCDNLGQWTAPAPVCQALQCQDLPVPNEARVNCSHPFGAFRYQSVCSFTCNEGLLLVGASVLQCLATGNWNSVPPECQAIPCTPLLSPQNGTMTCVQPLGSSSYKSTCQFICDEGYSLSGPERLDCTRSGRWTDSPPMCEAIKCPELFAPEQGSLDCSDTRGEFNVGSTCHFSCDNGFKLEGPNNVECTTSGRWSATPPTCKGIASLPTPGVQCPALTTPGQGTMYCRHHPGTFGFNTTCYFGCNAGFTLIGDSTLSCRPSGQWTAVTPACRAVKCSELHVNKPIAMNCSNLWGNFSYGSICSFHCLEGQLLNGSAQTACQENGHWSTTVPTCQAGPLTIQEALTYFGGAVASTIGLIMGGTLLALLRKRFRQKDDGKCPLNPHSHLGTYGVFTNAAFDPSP
# [3] = system: 5-lipoxygenase; settings: WO 95/04526; WO 94/24145; cited from earlier work
# [4] = WO 95/04526; WO 94/24145; cited from earlier work
# [5] = system: leukocyte adhesion on the endothelium; test: LPS-induced leukocyte adhesion in vivo, intravital microscopy in the mesenterium of the rat; settings: SPRD (m)
# Source text: In inflammatory processes and other states which activate the cytokines, a critical part is played by the destruction of tissue by means of leukocytes which migrate in or which block the microcirculation. The first phase, which is critical for the subsequent course of the disease, is the activation of leukocytes within the blood stream, especially in the pre- and post-capillary area. […] All subsequent leukocyte effects, i.e. active migration through the vessel wall and subsequent oriented migration in the tissue, are secondary reactions (Harlan, J. M., Leukocyte-endothelial interaction, Blood 65, 513-525,1985). […]
# The induced adhesion of leukocytes is quantified by an investigation technique involving intravital microscopy in the mesenterium of the rat (Atherton A. and Born G.V.R., Quantitative investigations of the adhesiveness of circulating polymorphonuclear leukocytes to blood vessel walls. J. Physiol. 222, 447-474,1972; Seiffge, D. Methoden zur Untersuchung der Rezeptor-vermittelten Interaktion zwischen Leukozyten und Endotheizellen im Entzundungsgeschehen [Methods of investigating receptor-mediated interaction between leukocytes and endothelial cells in the case of inflammation] in: Ersatz- und Erganzungsmethoden zu Tierversuchen in der biomedizinischen Forschung, Schoffl, H. et al., (eds.) Springer, 1995 (in press)). […]
# [6] = system: P-selectin-dependent lung injuries; settings: animal experiments; Mulligan et al. 1993; cited from earlier work
# [7] = system: myocardial reperfusion injuries; settings: animal experiments; Buerke et al. 1994; cited from earlier work
smiles,measurement,setting,value
CC1OC(CC(=O)C2CCCC2C(=O)NC(Cc2ccccc2)C(=O)O)C(O)C(O)C1O (stereo not shown) [Compound 2],IC50,"[1]; glycopeptide analogs (WO 95/04751), region of up to",≤ 1000 µM
CC1OC(CCCCC2OC(CO)C(O)C(CCC(=O)O)C2O)C(O)C(O)C1O (stereo not shown) [Compound 3],IC50,"[1]; Wong et al., J. Am. Chem. Soc. 1995",10000 to 20000 µM
C=C(CO[C@H]1CC[C@]2(C)[C@H]3C(=O)C=C4[C@@H]5C[C@@](C)(C(=O)O)CC[C@]5(C)CC[C@@]4(C)[C@]3(C)CC[C@H]2C1(C)C)C[C@@H]1O[C@@H](C)[C@@H](O)[C@@H](O)[C@@H]1O [Compound 4a],P-selectin inhibition (in words),[2],P-selectin inhibition
same,IC50,[2]; read-out: IC50 for binding to P-selectin,750 µM
same,inhibition of 5-lipoxygenase,[3],inhibition of 5-lipoxygenase
same,antimetastatic action,[4],antimetastatic action
C[C@@H]1O[C@@H](CCCOC(=O)N2CCC(C(=O)O)CC2)[C@@H](O)[C@H](O)[C@@H]1O [Compound 12c],inhibition of leukocyte adhesion,"[5]; 3 mg/kg, 1 day i.v.",58%
same,inhibition of leukocyte adhesion,"[5]; 20 mg/kg, 1 day p.o.",29%
CC(=O)NC1C(O)CC(OC2C(O)C(CO)OC(OC3C(CO)OC(O)C(NC(C)=O)C3OC3OC(C)C(O)C(O)C3O)C2O)(C(=O)O)OC1C(O)C(O)CO (stereo not shown) [SLeX],use in P-selectin-dependent lung injuries,[6],successfully used
same,use in myocardial reperfusion injuries,[7],successfully used
